Measured values taken from patent US7572816B2, “Therapeutic agents for the treatment of cancer, metabolic diseases and skin disorders” (Auspex Pharmaceuticals, Inc., priority 2004, dated 2009).

Assays:
Assay type in all cases: cell-based
[1] = test system: human hepatic carcinoma cells (HepG2); experiment: HepG2 Tumor Cell Proliferation Assay; conditions: FIG. 3 and FIG. 4
Method: (§1) HepG2 cells (5,000 per well in 90% EMEM medium plus 10% Fetal Bovine Serum [FBS]) were pre-incubated in a black clear bottom 98-well plate in an atmosphere of 5% CO2 at 37° C. for 24 hours. Stock solutions of compounds in DMSO were diluted using a buffer and dilutions were added to each well. […] The final assay pH was 7.4. The cells were incubated in EMEM medium for an additional 72 hours. Alamar Blue (10% of culture volume) was added and the plate was incubated for an additional 12 hours. Fluorescence intensity was measured using a Gemini plate reader with excitation at 530 nm and emission at 590 nm. A decrease of 50 percent or more (≧50%) in fluorescence intensity relative to vehicle treated controls is an indication of significant anti-cancer activity.

[2] = test system: human colon cancer cells (LS174T); experiment: LS174T growth inhibition; conditions: FIG. 5 and FIG. 6
[3] = test system: human melanoma cells (A375); conditions: FIG. 1 and FIG. 2
Method: as §1, with “A375 cells” for “HepG2 cells”, “90% RPMI-1640” for “90% EMEM medium”, “bottom 96-well” for “bottom 98-well”, “in RPMI-1 640 with each compound” for “in EMEM medium”, “72 to 168” for “72”, “Blue” for “Blue (10% of culture volume)”
TGI (Total Growth Inhibition): Test compound concentration where the increase in number or mass of cells after 72 to 168 hours is reduced to equal that at time t=0.

[4] = test system: human head and neck squamous cell carcinoma cells (SCC 103); experiment: SCC103 Tumor Cell Proliferation Assay; conditions: SCC 103 cells; FIG. 7 and FIG. 8
Method: as §1, with “SCC 103” for “HepG2”, “(15,000” for “(5,000”, “96-well” for “98-well”

Measured: growth inhibitory effect compared to Bexarotene

C=C(c1ccc(CC(C(N)=O)C(N)=O)cc1)c1cc2c(cc1C)C(C)(C)CCC2(C)C [Example 8, 2-{4-[1-(3,5,5,8,8-Pentamethyl-5,6,7,8-tetrahydro-naphthalen-2-yl)-vinyl]-benzyl}-malonamide]
enhanced activity: all assays above

C=C(c1ccc(CN2C(=O)CSC2=O)cc1)c1cc2c(cc1C)C(C)(C)CCC2(C)C [Example 10, 3-{4-[1-(3,5,5,8,8-Pentamethyl-5,6,7,8-tetrahydro-naphthalen-2-yl)-vinyl]-benzyl}-thiazolidine-2,4-dione]
enhanced activity: [3] | [4]

C=C(c1ccc(CN2C(=O)CN(C)C2=O)cc1)c1cc2c(cc1C)C(C)(C)CCC2(C)C [Example 11, 1-Methyl-3-{4-[1-(3,5,5,8,8-pentamethyl-5,6,7,8-tetrahydro-naphthalen-2-yl)-vinyl]-benzyl}-imidazolidine-2,4-dione]
enhanced activity: all assays above

C=C(c1ccc(CN2C(=O)NC(C)(C)C2=O)cc1)c1cc2c(cc1C)C(C)(C)CCC2(C)C [Example 12, 5,5-Dimethyl-3-{4-[1-(3,5,5,8,8-pentamethyl-5,6,7,8-tetrahydro-naphthalen-2-yl)-vinyl]-benzyl}-imidazolidine-2,4-dione]
enhanced activity: all assays above

C=C(c1ccc(CN2C(=O)CCNC2=O)cc1)c1cc2c(cc1C)C(C)(C)CCC2(C)C [Example 13, 3-{4-[1-(3,5,5,8,8-Pentamethyl-5,6,7,8-tetrahydro-naphthalen-2-yl)-vinyl]-benzyl}-dihydro-pyrimidine-2,4-dione]
enhanced activity: all assays above

C=C(c1ccc(CN2C(=O)N(C)C(C)(C)C2=O)cc1)c1cc2c(cc1C)C(C)(C)CCC2(C)C [Example 14, 1,5,5-Trimethyl-3-{4-[1-(3,5,5,8,8-pentamethyl-5,6,7,8-tetrahydro-naphthalen-2-yl)-vinyl]-benzyl}-imidazolidine-2,4-dione]
enhanced activity: [2] | [3] | [4]
